# Reference: ChEMBL document CHEMBL5241103, “Progress in the development of domain selective inhibitors of the bromo and extra terminal domain family (BET) proteins” (Eur J Med Chem, 2021)
# Tests used:
# [1] = target: T1, Bromodomain-containing protein 4 (Homo sapiens, UniProt O60885); assay: Binding affinity to human BRD4 BD1 assessed as inhibition constant incubated for 1 hr by competitive binding assay
# Homo sapiens [2] = organism: Homo sapiens; assay: Selectivity ratio of Ki for human BRD4 BD2 to Ki for BRD4 BD1
# [3] = target: T1, Bromodomain-containing protein 4; assay: Binding affinity to human BRD4 BD2 assessed as inhibition constant incubated for 1 hr by competitive binding assay
# Homo sapiens [4] = organism: Homo sapiens; assay: Selectivity ratio of IC50 for BRD4 BD2 (unknown origin) to IC50 for BRD4 BD1 (unknown origin)
# [5] = target: T1, Bromodomain-containing protein 4; assay: Inhibition of his 6 tagged BRD4 D1 (unknown origin) expressed in Escherichia coli BL21 (DE3) by fluorescence anisotropy assay
# [6] = target: Mitogen-activated protein kinase 14 (Homo sapiens, UniProt Q16539)
# Description: Binding affinity to p38 alpha (unknown origin) assessed as dissociation constant by DiscoverX kinomescan method
# Homo sapiens [7] = organism: Homo sapiens; assay: Selectivity ratio of Kd for BRD2 BD1 (unknown origin) to Kd for BRD2 BD2 (unknown origin)
# [8] = target: T2, Bromodomain-containing protein 2 (Homo sapiens, UniProt P25440); assay: Binding affinity to BDR2- BD2 (unknown origin) by TR-FRET assay
# [9] = target: T2, Bromodomain-containing protein 2; assay: Binding affinity to BDR2-BD1 (unknown origin) by TR-FRET assay
# Homo sapiens [10] = organism: Homo sapiens; assay: Selectivity ratio of Kd for BRD4 BD1 (unknown origin) to Kd for BRD4 BD2 (unknown origin)
# [11] = Inhibition of BRD BD2 (unknown origin) by alpha screen assay; parameters: species or system Homo sapiens
# [12] = Inhibition of BRD BD1 (unknown origin) by alpha screen assay; parameters: species or system Homo sapiens
# Homo sapiens [13] = organism: Homo sapiens; assay: Selectivity ratio of IC50 for BRD BD1 (unknown origin) to IC50 for BRD BD2 (unknown origin)
# T2 sequence (P25440 whole entry): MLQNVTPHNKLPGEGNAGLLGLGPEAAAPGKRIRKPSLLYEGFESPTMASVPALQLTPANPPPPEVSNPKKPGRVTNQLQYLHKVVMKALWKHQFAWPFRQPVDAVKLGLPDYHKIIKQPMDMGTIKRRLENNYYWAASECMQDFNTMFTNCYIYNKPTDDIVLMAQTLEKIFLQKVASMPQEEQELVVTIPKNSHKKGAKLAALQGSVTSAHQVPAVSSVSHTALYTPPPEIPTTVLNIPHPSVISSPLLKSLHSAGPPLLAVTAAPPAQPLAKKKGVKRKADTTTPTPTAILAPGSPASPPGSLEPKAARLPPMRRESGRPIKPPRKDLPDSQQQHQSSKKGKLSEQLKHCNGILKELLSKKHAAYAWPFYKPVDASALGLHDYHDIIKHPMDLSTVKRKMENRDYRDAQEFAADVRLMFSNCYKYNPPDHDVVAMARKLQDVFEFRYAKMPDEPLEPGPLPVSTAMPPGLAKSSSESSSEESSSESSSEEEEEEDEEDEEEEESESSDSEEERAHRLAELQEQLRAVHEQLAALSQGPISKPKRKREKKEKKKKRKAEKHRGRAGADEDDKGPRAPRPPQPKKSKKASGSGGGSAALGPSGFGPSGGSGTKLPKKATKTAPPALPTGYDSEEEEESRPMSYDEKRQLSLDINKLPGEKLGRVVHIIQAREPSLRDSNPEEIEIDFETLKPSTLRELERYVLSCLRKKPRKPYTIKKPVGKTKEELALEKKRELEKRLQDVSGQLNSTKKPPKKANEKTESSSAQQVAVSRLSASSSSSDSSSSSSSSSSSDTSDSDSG
# Mitogen-activated protein kinase 14, sequence (Q16539 whole entry): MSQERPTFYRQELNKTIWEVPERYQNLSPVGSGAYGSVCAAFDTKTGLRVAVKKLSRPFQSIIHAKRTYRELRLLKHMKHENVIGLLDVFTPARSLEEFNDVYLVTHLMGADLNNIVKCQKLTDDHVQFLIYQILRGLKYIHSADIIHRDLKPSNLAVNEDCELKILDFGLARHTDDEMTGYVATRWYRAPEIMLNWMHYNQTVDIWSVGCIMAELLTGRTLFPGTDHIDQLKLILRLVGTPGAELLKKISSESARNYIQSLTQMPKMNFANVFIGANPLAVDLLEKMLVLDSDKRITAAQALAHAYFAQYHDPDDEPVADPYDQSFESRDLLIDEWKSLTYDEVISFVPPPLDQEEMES
smiles,measurement,setting,value
COc1ccc(NC(=O)c2ccc(NC3=C(C)C(=O)CC3)c(Cl)c2)cc1,Ki,[1],77 nM
same,Ratio Ki,Homo sapiens [2],9
same,Ki,[3],718 nM
Cc1cc(C)cc(Oc2nccc(-c3c(-c4ccc(C(F)(F)F)cc4)ncn3C3CCN(CCN)CC3)n2)c1,Ratio IC50,Homo sapiens [4],9
same,IC50,[5],130 nM
same,Kd,[6],1900 nM
COC(=O)c1ccc(N[C@@H]2C[C@H](C)N(C(C)=O)c3ccc(-c4cccc(NC(C)=O)c4)cc32)cc1,Ratio,Homo sapiens [7],67
same,Kd,[8],14 nM
same,Kd,[9],931 nM
CC(=O)N1c2ccc(-c3cc[nH]n3)cc2[C@H](Nc2ccc(C#N)cc2)C[C@@H]1C,Ratio,Homo sapiens [7],80
same,Kd,[8],6 nM
same,Ratio,Homo sapiens [10],152
same,Kd,[9],490 nM
COc1cc(OC)c2c(=O)[nH]c(-c3cc(C)c(OCCN4CCCC4)c(C)c3)nc2c1,IC50,[11],20 nM
same,IC50,[12],1160 nM
same,Ratio IC50,Homo sapiens [13],40
